Experimental findings from patent US20140235685A1, “PHARMACEUTICAL COMPOSITIONS COMPRISING 4-BROMO-N-(IMIDAZOLIDIN-2-YLIDENE)-1H-BENZIMIDAZOL-5-AMINE FOR TREATING SKIN DISEASES” (Allergan, Inc., priority 2011, published 2014) are described below.

The test deals with cutaneous blood flow in the microvasculature of the hind foot pad. Nature of the test: Rat Blood Flow Assay (laser Doppler flowmetry, hind foot pad). The test is classed as in vivo. As for the experimental part:
α-adrenergic agonists that act on the sympathetic nervous system outflow can regulate cutaneous blood flow in response to temperature changes.
A laser Doppler microvascular perfusion monitor (Laser Doppler Flowmetry LDP technique), was used to monitor red blood cell perfusion in the microvasculature of the hind foot pad. The laser doppler flowmetry (LDP) is an OxyFlo Microvascular Perfusion Monitor, from Oxford Optronix LTd. UK.
Briefly, 15 μL of test articles were applied topically to one hind foot pad of anaesthetized CD rats and 15 μL of vehicle was applied to the other footpad. The hairless CD rats used are a spontaneous mutation model isolated from a Crl:CD(SD) colony in Charles River, in the late 1980s. Rederived in 1993 and subsequently transferred to Charles River, Raleigh, N.C. for barrier room production. […] Specific genetic analysis to identify the mutation has not been undertaken. Histopathology has determined the model is euthymic.
Thirty minutes following test article administration, dynamic blood flow changes were measured and recorded every 15 seconds for 4 minutes per temperature interval for 5 intervals (22° C.→37° C.→4° C.→37° C.→22° C.). Rats were placed on a 37° C. heat pad to increase their temperature and on an ice pad to decrease their temperature to 4° C. The level of blood flow in the two paws was compared. […] It has a significant difference.

As to `Brc1c(N=C2NCCN2)ccc2[nH]cnc12` [4-bromo-N-(imidazolidin-2-ylidene)-1H-benzimidazol-5-amine], the “effect on induced vessel dilation caused at 37° C.” value (topical application to the skin at a concentration of 0.5%, FIG. 1) is given as “inhibited the induced vessel dilation”. In addition, the “overall blood flow inhibition” value (topical, 15 μL to one hind foot pad of anaesthetized hairless CD rats vs vehicle on other footpad, measured 30 min after application over 5 temperature intervals (22→37→4→37→22° C.), P=0.014) is recorded as 17%.
